Columns and labels:
dopamine in NAc shell = assay: In vivo microdialysis, dopamine release in NAc shell; set-up: species or system Wistar rats; settings: n = 8 per group
Description: Male and female Rcc Han Wistar rats (8–12 weeks old at arrival; Envigo, Horst, Netherlands) were used for the alcohol drinking and locomotor activity experiments as they drink alcohol to intoxicating levels. For in vivo microdialysis studies male Wistar rats (Charles River, Calco, Italy) were used as they display robust dopamine levels in NAc shell after alcohol injection. […] All rodents were allowed to habituate to the animal facility at least one week before they entered an experiment. […] The sample sizes of each experiment were based on previous experience in which statistical significance has been detected. The person who conducted the experiments, and analyzed the collected data was aware of the treatment allocation. Only preset exclusion criteria were used when analyzing the data obtained in attempts to exclude confounding factors in analyzing data. In the alcohol drinking experiments leaking bottles and low alcohol consumption (<3.0 g/kg for males; <3.5 g/kg for females) were preset exclusion criteria. The preset exclusion criterion in the ex vivo HPLC-EC, ELISA, and recombinant cell line experiments was contamination of the sample. Misplaced probes, technical difficulties, and damages to the surgery area were preset exclusion criteria for the in vivo microdialysis experiment. Intra-cage male aggression was the preset exclusion criterion for the locomotor activity and CPP experiments. To minimize tentative confounding factors, the order of treatments was stratified, with treatments being mixed for each animal cage and for each apparatus used as well as balancing the alcohol intake between future treatment groups. […]
(§1) The data from drinking experiments were analyzed by unpaired t-test or repeated two-way ANOVA. A two-tailed unpaired t-test analyzed the ELISA, ex vivo HPLC-EC, and cFOS data. […] A one-way ANOVA with Bonferroni post hoc tests and unpaired t-test analyzed the locomotor activity and CPP data, respectively. The in vivo microdialysis experiments were evaluated by a repeated two-way ANOVA followed by the Bonferroni post hoc test.

cFOS in NAc and VTA = assay: cFOS-positive cells in NAc and VTA; type: in vivo, male rats; settings: acute DAG, 90 min
Description: We therefore explore if DAG influenced the activity of neurons (cFOS) in NAc and VTA. Naïve male rats were treated acutely with vehicle (n = 3) or DAG (n = 3) and were 90 min later perfused. Brains were collected, and stored in 4% paraformaldehyde overnight, and in 25% sucrose until sectioning. Brains were sectioned coronally in 40-μm sections using a microtome. Brain slices of NAc (AP +1.8 mm) and VTA (AP −5.2 mm) were stained for cFOS-DAB, as described elsewhere, visualized by a Nikon light microscope (Nikon Eclipse 90i, Tokyo, Japan). Pictures were captured with a Nikon DS-Fi1 camera (Nikon, Tokyo, Japan). Cell bodies positive for cFOS immunoreactivity (dark brown) were quantified using ImageJ-FIJI (National Institutes of Health, Bethesda, MD), and counted manually by a blinded experimenter.
as §1, with “The obtained data are normally distributed and with equal variance. The data” for “The data”, “hoc test. […] Data were analyzed with GraphPad Prism version 10.0.2 (GraphPad Software, La Jolla, CA, USA).” for “hoc test.”

“des-acyl ghrelin (GSSFLSPEHQRVQQRKESKKPPAKLQPR; Ghrelin-28 non-acylated; UniProt Q9UBU3 24-51, looked up) [DAG, non-octanoylated form of ghrelin; purchased from Tocris (printed Tocrise Bioscience), dissolved in 0.9% NaCl]” was tested, and the “dopamine in NAc shell, DAG per se” value (dopamine in NAc shell; DAG 1 mg/kg without alcohol) was “did not affect dopamine in the NAc shell per se”, the “alcohol-induced dopamine release in NAc shell (effect of DAG)” value (dopamine in NAc shell; male rats (methods), DAG 1 mg/kg plus alcohol vs vehicle-alcohol) was “suppressed this enhancement (40 min P = 0.0396, 80 min P < 0.0001, 160 min P = 0.0400, 200 min P = 0.0010, 220 min P = 0.0458)” and the “cFOS-positive cells, VTA” value (cFOS in NAc and VTA; male rats, data not shown) was “Neither did DAG treatment influence cFOS-positive cells in the VTA”. The “number of cFOS-positive cells, NAc shell” value (cFOS in NAc and VTA; naïve male rats, n = 3 per group, vehicle 237 ± 13, t4 = 0.60, P = 0.6372) was 219 ± 33.
